Data: US20230285489A1, “METHODS, COMPOSITIONS, AND KITS ADDRESSING DEPRESSED MOOD” (Centre for Addiction and Mental Health, priority 2014, published 2023)

Experiment: Breast milk and plasma amino acid levels and tolerability after oral tyrosine or tryptophan
Conditions: for amount of free amino acid in breast milk: after oral supplementation
Description: Many amino acids and most medications freely cross into breast milk. […] The reason is that approximately 98% of tryptophan in breast milk is contained in proteins and peptides and that 99% of tyrosine in breast milk is contained in proteins and peptides. Different supplementation doses of oral tyrosine (0 g (none), 2, 5 or 10 grams) (n=6 each) or oral tryptophan (0 g (none), 2 or 4 grams) (n=6 each) were evaluated for resulting levels in breast milk.

**Q.** Which “amount of free amino acid in breast milk” value does the source give for N[C@@H](Cc1c[nH]c2ccccc12)C(=O)O [tryptophan, L-tryptophan] here?
**A.** did increase

**Q.** What about the “total tryptophan levels in breast milk” value (oral tryptophan 2 or 4 grams, n=6 each) of the same molecule?
**A.** no change

**Q.** And the adverse effect (tryptophan 4 gram level)?
**A.** nausea

**Q.** What about the “total tryptophan in breast milk” value (tryptophan 4 gram level) of the same molecule?
**A.** did not increase

**Q.** And the “level in maternal plasma” value (tryptophan dose of 2 grams)?
**A.** significantly increased

**Q.** What about the tolerability (tryptophan dose of 2 grams) of the same molecule?
**A.** extremely well tolerated

**Q.** And the “total tryptophan levels in breast milk” value (tryptophan dose of 2 grams)?
**A.** did not have any effects

**Q.** What does the source list for N[C@@H](Cc1ccc(O)cc1)C(=O)O [tyrosine, L-tyrosine]?
**A.** amount of free amino acid in breast milk: did increase; total tyrosine levels in breast milk (oral tyrosine 2, 5 or 10 grams, n=6 each): no change; level in maternal plasma (tyrosine dose of 10 grams): significantly increased; tolerability (tyrosine dose of 10 grams): extremely well tolerated; total tyrosine levels in breast milk (tyrosine dose of 10 grams): did not significantly impact
